Assay results: patent US20240043448A1, “Small Molecule Inhibitors of KRAS G12C Mutant” (Merck Sharp & Dohme LLC, priority 2019, published 2024)
Like-named read-outs stand apart in the source and are kept apart here.

Key:
phospho-ERK = assay: Cellular phospho-ERK assay; assay type: cell-based; settings: NCI-H358 cells, 2 hour incubation, ratio of p-Erk vs total Erk, read-out: IC50 (nM) pERK (Cell)
Experimental: NCI-H358 cells (ATCC® CRL-5807™) were cultured in T150 flask in growth medium (RPMI medium 1640-GlutaMAX™-I (ThermoFisher Scientific 61870) containing 10% fetal bovine serum (ThermoFisher Scientific 10091148)). The cells were harvested in growth medium after TrypLE (ThermoFisher scientific 12604021) digestion and were seeded in a 384-well collagen coated cell culture plate (Corning 356702) at a density of 15,000 cells/well, and incubated at 37° C., 5% CO2 overnight. The compound dose-response titrations were prepared and appropriate amounts of compounds were dispensed in a 384-well intermediate plate using an Echo 550 liquid handler. RPMI medium 1640-GlutaMAX™-I were added to the intermediate plate and transferred to 384-well cell culture plate, which was incubated at 37° C., 5% CO2 for 2 hours. After removal of medium from the plate, cells were lysed in lysis buffer from Alpha SureFire® Ultra™ Multiplex p-Erk and total Erk assay kit (PerkinElmer MPSU-PTERK) containing Halt™ Protease and Phosphotase inhibitor cocktail (ThermoFisher Scientific 78446) at room temperature with constant shaking at 300 rpm for 30 minutes. The cell lysates were then transferred to OptiPlate-384 plate (PerkinElmer 6005620) and the phosphorylation of Erk and total Erk levels were detected by Alpha SureFire Ultra Multiplex p-Erk kit (PerkinElmer MPSU-PTERK) following the manufacturer's protocol. Assay plates were read on an EnVision Multimode Plate Reader (PerkinElmer), and the ratio of p-Erk vs total Erk in each well was used as the final readout. Dose response curves were analyzed using a 4-parameter logistic model to calculate IC50 values using spotfire software.

[1] = biological target: Biotinylated KRAS G12C protein (Homo sapiens (Human), UniProt P01116, C118S/C51S/C80L/G12C); assay: SOS-catalyzed nucleotide exchange assay (TR-FRET); assay type: biochemical; settings: in vitro apparent potency; preincubation time of 60 minutes prior to addition of SOS
Experimental: The SOS-catalyzed nucleotide exchange assay utilizes a preformed complex of recombinant biotinylated KRAS protein containing G12C/C51S/C80L/C118S mutations (183 amino acids; biotin on K10; leader sequence which is an AviTag; referred to as SEQ ID NO: 1 or “Biotinylated KRAS G12C protein” hereafter), Bodipy-GDP, and Terbium-streptavidin. Compounds are added to this complex and then after incubation for 60 minutes, the mixture is treated with recombinant SOS protein and unlabeled GTP. Small molecule inhibitors stabilize the Bodipy-GDP complex whereas the untreated protein rapidly exchanges Bodipy-GDP for unlabeled GTP resulting in reduced TR-FRET signal.
Biotinylated KRAS G12C protein (SEQ ID NO: 1) is diluted to 2 μM in an EDTA buffer (20 mM HEPES, 150 mM sodium chloride, 10 mM EDTA, and 0.01% Tween) and incubated at room temperature for one hour. This mixture is then further diluted to 90 nM in an assay buffer (20 mM HEPES, 150 mM sodium chloride, 10 mM magnesium chloride, and 0.005% Tween) containing 15 nM of Terbium-Streptavidin (Invitrogen, catalog #PV3577) and 900 nM of Bodipy-GDP and incubated at room temperature for six hours. This solution is referred to as Biotinylated KRAS G12C mixture.
Each test compound (10 mM stock in DMSO) is diluted in DMSO to make a 10-point, 3-fold dilution series in a 384-well low dead volume microplate (Labcyte, catalog #LP-0200). Once titrations are made, 10 nL of the diluted compounds is acoustically dispensed into a 384-well plate (Corning, catalog #3820) using an Echo 550 (Labcyte).
Each well of the plate receives 3 μL Biotinylated KRAS G12C mixture that had been incubating for six hours and 3 μL of assay buffer using a BioRAPTR (Beckman Coulter) and is incubated at room temperature for 60 minutes. Each well then receives 3 μL of 240 nM recombinant human SOS protein and 9 mM GTP (Sigma, G8877) in assay buffer and is incubated at room temperature for 60 minutes.
The time-resolved fluorescence resonance energy transfer signal of the plate is measured on an Envision (PerkinElmer) plate reader: Excitation filter=340 nm; emission1=495 nm; emission2=520 nm; dichroic mirror=D400/D505; delay time=100 μs. The signal of each well is determined as the ratio of the emission at 520 nm to that at 495 nm. Percent effect of each well is determined after normalization to control wells containing DMSO (no effect) or a saturating concentration of inhibitor (max effect). The apparent effect as a function of compound concentration is fit to a four parameter logistic equation.

## C=CC(=O)N1CCN(c2nc(=O)n3c4nc(c(F)cc24)-c2c(F)cccc2OCCCc2ccnc(C(C)C)c2-3)C[C@@H]1CC [Example 103, 2-[(3S)-3-ethyl-4-(prop-2-enoyl)piperazin-1-yl]-17,20-difluoro-6-(propan-2-yl)-11,12-dihydro-4H,10H-1,18-ethenopyrido[4,3-e]pyrimido[1,6-g][1,7,9] benzoxadiazacyclododecin-4-one]
phospho-ERK; Homo sapiens, NCI-H358, 2 h
  IC50: 847 nM
[1]
  IC50: 107 nM

## C=CC(=O)N1C[C@H](C)N(c2nc(=O)n3c4nc(c(Cl)cc24)-c2c(F)cccc2OCCc2ccnc(C(C)C)c2-3)C[C@H]1C (atropisomer, axis not shown) [Example 119, 19-chloro-2-[(2S,5R)-2,5-dimethyl-4-(prop-2-enoyl)piperazin-1-yl]-16-fluoro-6-(propan-2-yl)-10,11-dihydro-4H-1,17-ethenopyrido[4,3-d]pyrimido[1,6-f][1,6,8]benzoxadiazacycloundecin-4-one]
phospho-ERK
  IC50: 5.1 nM
[1]
  IC50: 2.6 nM

## C=CC(=O)N1CCN(c2nc(=O)n3c4nc(c(F)cc24)-c2c(F)cccc2CCCOc2ccnc(C(C)C)c2-3)[C@@H](C)C1 (single isomer, unassigned) [Example 20a]
phospho-ERK
  IC50: 30 nM
[1]
  IC50: 12 nM

## C=CC(=O)N1CCN(c2nc(=O)n3c4nc(c(F)cc24)-c2c(F)cccc2CCCOc2ccnc(C(C)C)c2-3)[C@@H](C)C1 (single isomer, unassigned) [Example 20b]
phospho-ERK
  IC50: 4760 nM
[1]
  IC50: 1380 nM

## C=CC(=O)N1C[C@H](C)N(c2nc(=O)n3c4nc(c(F)cc24)-c2c(F)ccc(F)c2OCCOc2ccnc(Cl)c2-3)C[C@H]1C [Example 87, 6-chloro-2-[(2S,5R)-2,5-dimethyl-4-(prop-2-enoyl)piperazin-1-yl]-14,17,20-trifluoro-11,12-dihydro-4H-1,18-ethenopyrido[4,3-e]pyrimido[1,6-g][1,4,7,9] benzodioxadiazacyclododecin-4-one]
phospho-ERK; Homo sapiens, NCI-H358, 2 h
  IC50: 3210 nM
[1]
  IC50: 461 nM

## C=CC(=O)N1C[C@H](C)N(c2nc(=O)n3c4nc(c(Cl)cc24)-c2c(F)cccc2OCCCc2ccnc(C(C)C)c2-3)C[C@H]1C [Example 63, 20-chloro-2-[(2S,5R)-2,5-dimethyl-4-(prop-2-enoyl)piperazin-1-yl]-17-fluoro-6-(propan-2-yl)-11,12-dihydro-4H,10H-1,18-(ethanediylidene)pyrido[4,3-e]pyrimido[1,6-g][1,7,9] benzoxadiazacyclodo-decin-4-one]
phospho-ERK; Homo sapiens, NCI-H358, 2 h
  IC50: 2 nM
[1]
  IC50: 3.6 nM

## C=CC(=O)N1C[C@H](C)N(c2nc(=O)n3c4nc(c(C)cc24)-c2c(F)ccc(F)c2OCCCc2ccnc(C(C)C)c2-3)C[C@H]1C (single isomer, unassigned) [Example 120]
phospho-ERK
  IC50: 11 nM
[1]
  IC50: 4.3 nM

## C=CC(=O)N1C[C@H](C)N(c2nc(=O)n3c4nc(c(F)cc24)-c2c(ccc(F)c2F)OCCCc2ccnc(C(C)C)c2-3)C[C@H]1C [Example 78, 2-[(2S,5R)-2,5-dimethyl-4-(prop-2-enoyl)piperazin-1-yl]-16,17,20-trifluoro-6-(propan-2-yl)-11,12-dihydro-4H,10H-1,18-ethenopyrido[4,3-e]pyrimido[1,6-g][1,7,9]benzoxadiazacyclododecin-4-one]
phospho-ERK; Homo sapiens, NCI-H358, 2 h
  IC50: 18 nM
[1]
  IC50: 2.4 nM

## C=CC(=O)N1CC2CCC1CN2c1nc(=O)n2c3nc(c(F)cc13)-c1c(F)cccc1OCCCc1ccnc(C(C)C)c1-2 (stereo not drawn) [Example 106, 17,20-difluoro-4-oxo-6-(propan-2-yl)-2-[5-(prop-2-enoyl)-2,5-diazabicyclo[2.2.2]octan-2-yl]-11,12-dihydro-4H,10H-1,18-ethenopyrido[4,3-e]pyrimido[1,6-g][1,7,9] benzoxadiazacyclododecin-4-one]
phospho-ERK
  IC50: 5620 nM
[1]
  IC50: 2550 nM

## C=CC(=O)N1C[C@H](C)N(c2nc(=O)n3c4nc(c(F)cc24)-c2cc(C(F)(F)F)ccc2OCCOc2ccnc(C(C)C)c2-3)C[C@H]1C [Example 86, 2-[(2S,5R)-2,5-dimethyl-4-(prop-2-enoyl)piperazin-1-yl]-20-fluoro-6-(propan-2-yl)-16-(trifluoromethyl)-11,12-dihydro-4H-1,18-(ethanediylidene)pyrido[4,3-e]pyrimido[1,6-g][1,4,7,9] benzodioxadiazacyclododecin-4-one]
phospho-ERK; Homo sapiens, NCI-H358, 2 h
  IC50: 389 nM
[1]
  IC50: 64 nM

## C=CC(=O)N1CCN(c2nc(=O)n3c4nc(c(F)cc24)-c2cccc4cnn(c24)CCCOc2ccnc(C(C)C)c2-3)[C@@H](C)C1 [Example 3a, 22-fluoro-2-[(2S)-2-methyl-4-(prop-2-enoyl)piperazin-1-yl]-6-(propan-2-yl)-12,13-dihydro-4H,11H-1,20-ethenopyrido[4′,3′:2,3]pyrimido[1′,6′:4,5][1,4,6,10]oxatriazacyclotridecino[8,9,10-hi]indazol-4-one]
phospho-ERK
  IC50: 19100 nM
[1]
  IC50: 4420 nM

## C=CC(=O)N1C[C@H](C)N(c2nc(=O)n3c4nc(c(F)cc24)-c2c(ccc(F)c2F)OCC2(CCc4ccnc(C(C)C)c4-3)CC2)C[C@H]1C [Example 62, 2′-[(2S,5R)-2,5-dimethyl-4-(prop-2-enoyl)piperazin-1-yl]-17′,18′,21′-trifluoro-6′-(propan-2-yl)-10′,11′-dihydro-4′H,13′H-spiro[cyclopropane-1,12′-[14]oxa [3,5,7,20]tetraaza[1,19] (ethanediylidene)pyrido[4,3-f]pyrimido[1,6-h][1,8,10]benzoxadiazacyclotri-decin]-4′-one]
phospho-ERK; Homo sapiens, NCI-H358, 2 h
  IC50: 54 nM
[1]
  IC50: 3.5 nM

## C=CC(=O)N1C[C@H](C)N(c2nc(=O)n3c4nc(c(F)cc24)-c2c(F)c(F)cc(F)c2OCCCc2ccnc(C(C)C)c2-3)C[C@H]1C [Example 77, 2-[(2S,5R)-2,5-dimethyl-4-(prop-2-enoyl)piperazin-1-yl]-14,16,17,20-tetrafluoro-6-(propan-2-yl)-11,12-dihydro-4H,10H-1,18-ethenopyrido[4,3-e]pyrimido[1,6-g][1,7,9]benzoxadiazacyclododecin-4-one]
phospho-ERK; Homo sapiens, NCI-H358, 2 h
  IC50: 45 nM
[1]
  IC50: 2.4 nM

## C=CC(=O)N1C[C@H](C)N(c2nc(=O)n3c4nc(c(F)cc24)-c2c(F)cccc2OCCCCc2ccnc(C(C)C)c2-3)C[C@H]1C [Example 8, 2-[(2S,5R)-2,5-dimethyl-4-(prop-2-enoyl)piperazin-1-yl]-18,21-difluoro-6-(propan-2-yl)-10,11,12,13-tetrahydro-4H-1,19-ethenopyrido[4,3-f]-pyrimido[1,6-h][1,8,10]ben-zoxadiazacyclotridecin-4-one]
phospho-ERK; Homo sapiens, NCI-H358, 2 h
  IC50: 2.2 nM
[1]
  IC50: 3.5 nM

## 17,20-difluoro-12-hydroxy-2-[(2S)-2-methyl-4-(prop-2-enoyl)piperazin-1-yl]-6-(propan-2-yl)-10,11,12,13-tetrahydro-4H-1,18-ethenopyrido[3,4-e]pyrimido[6,1-c][2,4]benzodiazacyclododecin-4-one [Example 118-1]
phospho-ERK
  IC50: 651 nM
[1]
  IC50: 192 nM
